According to patent US9422308B2, “Derivatives of docosahexaenoylethanolamide and uses thereof” (The United States of America, as represented by the …, priority 2012, dated 2016):

What was measured:
neural stem cells = test: neuronal and glial differentiation of neural stem cells (MAP2/GFAP immunofluorescence); assay type: cell-based, rats; details: 7 days, differentiating NSCs
Method: Fetal neural stem cell culture: Neural stern cells (NSCs) were cultured by the neurosphere method (Rietze R. L., Reynolds B. A. (2006) Neural stem cell isolation and characterization. Methods Enzymol. 419, 3-23, the method incorporated by reference herein) with slight modification. Forebrain cortices of rats were isolated on embryonic day 14.5 and 12.5, respectively. The cortices were mechanically disrupted into single cells by repeated pipetting in a serum-free conditioned medium (N2 medium) containing DMEM/F12 (1:1), 0.6% (wt/vol) glucose, 0.1125% (wt/vol) sodium bicarbonate, 2 mM L-glutamine, 5 mM HEPES, 100 μg/mL human apo-transferrin, 20 nM progesterone, 30 nM sodium selenite, 60 μM putrescine, and 25 μg/mL insulin. The dissociated cells were cultured in 6 cm dishes at a density of 1×10^5 cells/mL in N2 medium with 20 ng/mL bFGF and 2 μg/mL heparin in a humidified 5% CO2/95% air incubator at 37° C. Within 3-4 days, the cells grew as free-floating neurospheres that were then collected by centrifugation, mechanically dissociated by pipetting, and passaged.
Differentiation of NSCs: After the second passage, nestin- and SOX2-positive NSCs were enriched in the neurosphere with minimal presence of differentiated cells (MAP2, Tuj-1 and GFAP-positive cells). After the second passage neurospheres were mechanically dissociated and 5×10^5 cells/mL were plated onto 15 μg/mL poly-L-ornithine coated 6- or 24-well plates in N2 medium without bFGF and heparin to initiate the differentiation. The cultures were then treated with N2 medium containing A8 in the presence of 40 μM vitamin E for 1-7 days. As the vehicle control, N2 medium containing 40 μM vitamin E was used.
Immunofluorescence staining: For immunofluorescence staining, 2.5×10^5 NSCs were cultured in 0.5 mL media. […] Finally, the cells were mounted with 80% (vol/vol) glycerol, visualized under a fluorescence microscope and the image data were processed using MetaMorph software for quantitative information. The number of MAP2- and GFAP-positive cells were counted from three separate wells with three to six random fields per well. […]

cortical neurons = test: neurite growth of embryonic mouse neurons (total neurite length/neuron, MAP2 immunostaining); assay type: cell-based
Method: To obtain embryonic mouse neurons for analysis, pregnant female mice were killed by cervical dislocation after exposure to CO2 inhalation. Embryonic neurons were prepared from E18 or P0 mouse hippocampi or cortex and cultured as described previously (Calderon and Kim, J. Neurochem., 90(4):979-88 (2004), errata in J Neurochem., September; 90(6):1540 (2004)), with slight modification. Briefly, hippocampi or cotices were dissected and dissociated by a method using either 0.25% trypsin (Gibco Invitrogen Corporation, Grand Island, N.Y.) in Hank's balanced salt solution (HBSS) or papain (20-30 U/mL) in dissociation media containing cysteine at 37° C. for 15 min. After the dissociation solution was aspirated off, cells were washed with same volume of HBSS, suspended in neurobasal medium (Gibco) containing 2% B27 supplement (Gibco), 1% glutamine/glutamax mix (1:4) (Gibco), 100 U/ml penicillin (Gibco) and 100 μg/ml streptomycin (Gibco), and seeded on poly-D-lysine chambered slides (Lab-Tek, Naperville, Ill.) at a density of 30,000 cells/cm^2. On the second day after seeding, the cells were treated with fatty acids, synaptamide or one of Compounds 1-50 for 48 h. Docosahexaenoic acid (DHA) and oleic acid (OA) were complexed with fatty acid-free bovine serum albumin (BSA; Sigma, St Louis, Mo.) in the presence of α-tocopherol (Sigma) under an argon atmosphere and darkness to prevent oxidation of the fatty acids. The mixture was mixed with fresh Neurobasal medium containing B27 supplement, glutamine/glutamax mix and antibiotics. Final concentrations of α-tocopherol and BSA in the culture medium were 40 μM and 0.01%, respectively. Alternatively, DHA, OA, synaptamide, or one of Compounds 1-50 were dissolved in DMSO and applied directly together with α-tocopherol. In such case, the final concentration of DMSO is less than 0.005%. All stock solutions were aliquoted under argon and stored at −70° C.
Cells were fixed with […] (Sigma) in PBS (pH 7.4) for 30 min. After permeabilization with 0.1% Triton X-100 (Sigma), cells were blocked for 1 h at 37° C. with PBS containing 10% goat serum (Gibco), and then incubated with the primary antibody against microtubule-associated protein (MAP2, mouse monoclonal 1:250; Sigma). After washing with PBS, cells were incubated with the corresponding Cy2-, Cy3-conjugated secondary antibody (Jackson Immunoresearch Laboratories Inc., West Grove, Pa.). For the nuclear staining, 0.06% 4,6-Diamidino-2-Phenylindole (Sigma) was used. After immunostaining, images were collected using an inverted motorized 1×81 Olympus (Melville, N.Y.) and the neurite length was analyzed with Metamorph software (Molecular Devices Corporation, Downingtown, Pa.). To minimize bias, neurons were evaluated blindly without the knowledge of sample identity. Four to six fields/well were chosen at random and only non-clustered neurons were evaluated to ensure the precision of the measurements. From each well, over 100 neurons were evaluated at 20× magnification for total neurite length/neuron. The data were obtained from triplicate wells and the experiments were repeated at least three times.
FIG. 2 provides graphical results of the data shown in Table 2, expressed as total neurite length per neuron. FIG. 3 provides graphical results of these experiments for compounds 11-50 (having designations as provided in Table 1, above), expressed as relative neurite length as compared to untreated controls. FIG. 4 provides graphical results of these experiments for compounds 1-10 (having designations as provided in Table 1, above), as applied to hippocampal neurons.
An additional assay was performed in which Compounds (A8), 4(A10), and 7(A9) were applied at varying dosages (from 10^−5 nM to 10 nM; 10^−5 nM, 10^−4 nM, 10^−2 nM, 0.1 nM, 1 nM, and 10 nM) as compared to DHA, synaptamide, and oleic acid. Neurite growth was measured at each dosage. Results of this assay are provided at FIG. 1.

Structure (SMILES): CC/C=C\C/C=C\C/C=C\C/C=C\C/C=C\C/C=C\CCC(=O)NCC(C)(C)O [Compound 1, (4Z,7Z,10Z,13Z,16Z,19Z)—N-(2-hydroxy-2-methylpropyl)docosa-4,7,10,13,16,19-hexaenamide]
- MAP2 positive cells (neural stem cells; 1 nM, control 7.0±0.8, p=0.02): 10.8±1.8%
- differentiation into GFAP positive cells (neural stem cells; 1-100 nM range): not affected
- MAP2 positive cells (maximum effect) (neural stem cells; around 10 nM, p=0.007): 17.2±4.1%
- Neurite Length/Neuron (mean) (cortical neurons; cortical neurons, 10 nM (FIG. 2), 48 h): 41.3 μm
- effect with respect to cortical neurite growth as compared to DHA (cortical neurons; cortical neurons, FIGS. 1, 2): superior effect
- dosage at which activity is exhibited as compared to DHA and synaptamide (cortical neurons; dosages 10^-5 nM to 10 nM, FIG. 1): activity at significantly lower dosages
